Experiments:
Assay type in all cases: binding, guinea pig
[1] = test system: anti-MG-Ins IgG; assay: Fluorescence spectrum of auramine O bound to the anti-MG-Ins IgG; conditions: IgG 1 μM, AO 1 μM, PBS pH 7.2, 25° C., excitation 400 nm; FIG. 14
Procedure: The fluorescence spectrum of AO when AO is bound to the anti-MG-Ins IgG by an antigen-antibody reaction was measured as follows. The anti-MG-Ins IgG and AO were mixed so that the respective concentrations will be 1 μM and 1 μM (using phosphate buffered saline (pH 7.2, PBS) as the solvent). An antigen-antibody reaction was made to proceed by stirring for five minutes at 25° C. Then using the fluorescence spectrophotometer, the fluorescence spectrum emitted from the above-described mixed solution was measured under the conditions of an excitation wavelength of 400 nm, fluorescence wavelength of 450 to 650 nm, and bandpass width being set to 5 nm at both the excitation and fluorescence sides.

[2] = test system: anti-MG-Ins Fab; assay: Calibration curve: insulin concentration vs MG fluorescence intensity with anti-MG-Ins Fab and malachite green; conditions: 1 μM anti-MG-Ins Fab, 0.4 μM MG, excitation 620 nm, fluorescence 650 nm; FIG. 13
Procedure: A calibration curve, indicating the relationship between the insulin concentration and fluorescence intensity for a fixed amount (1 μM) of the anti-MG-Ins Fab and a fixed amount (0.4 μM) of MG, was prepared as follows. Since the insulin used forms aggregate of a few molecules because of containing zinc, the insulin was dissolved in advance in PB containing SDS at a final concentration of 0.1% to dissociate the aggregate. The insulin solution thus obtained was thereafter run through a gel permeation column (Fast Desaliting Column HR 10/10, made by Pharnacia), equilibrated using PBS. The insulin solution from which SDS was thus removed was used in the following quantification. • (1) The fluorescence spectrophotometer was set to an excitation wavelength of 620 nm and a fluorescence wavelength of 650 nm and the temperature of the cell holder was maintained at a fixed temperature (25° C.). • (2) 2 ml (A=2 ml) of an antibody-dye solution, containing 1 μM (Y=1 μM) of the anti-MG-Ins Fab and 0.4 μM (Z=0.4 μM) of MG, were prepared (with phosphate buffered saline (pH 7.2, PBS) as the solvent) (S101). • (3) The antibody-dye solution thus obtained was placed in a standard fluorescence measurement cell. This cell was set in the fluorescence spectrophotometer. The solution in the cell was stirred for 30 seconds with a micro stirring bar. […]

[3] = test system: anti-MG-Ins Fab; assay: Verification test concerning the reversibility of the antigen-antibody reactions (AO fluorescence)
Procedure: The following experiment was carried out in order to confirm that, when the free insulin concentration in the same sample is varied by repeating the addition of insulin and the addition of anti-porcine insulin IgG (referred to hereinafter as “anti-insulin IgG”) in a solution containing the anti-MG-Ins Fab and auramine O, the measurement values of this invention vary following the variation of the free insulin concentration, that is, the antigen-antibody reactions concerning this invention are reversible and enable analysis in real time. The measurement of fluorescence intensity was carried out under the same measurement conditions as described above in [2-2-1].
First, 2 ml of a PBS solution, containing 2 μM of the anti-MG-Ins Fab and 0.4 μM of auramine O, were prepared. The AO fluorescence intensity was measured upon placing the solution in a cell. The florescence intensity at this time was set to a relative value of 1.
Insulin was then added to the solution in the cell so that the insulin concentration will be 1.26 μM.
A fixed amount (0.135 μM) of the anti-insulin IgG was then added to this solution. […] The AO fluorescence intensity returned to the original value since the anti-insulin IgG and insulin became bonded and free insulin no longer existed in the solution.
When insulin was then added again to this solution so that the insulin concentration will be 2.39 μM.

[4] = test system: anti-MG-Ins Fab; assay: Calibration curve: insulin concentration vs AO fluorescence intensity with anti-MG-Ins Fab and auramine O; conditions: 2 μM anti-MG-Ins Fab, 0.4 μM AO, excitation 400 nm, fluorescence 520 nm; FIG. 15
Procedure: A calibration curve was prepared for insulin concentrations in the range of 0 to 7.7 μM in the same manner as described above in [1-10-1] other than the changes of setting the anti-MG-Ins Fab concentration to 2 μM, using 0.4 μM of auramine O in place of 0.4 μM of malachite green, setting the excitation wavelength to 400 nm, and setting the fluorescence wavelength to 520 nm.

[5] = test system: anti-MG-Ins Fab; assay: Fluorescence spectrum of malachite green bound to the anti-MG-Ins Fab; conditions: Fab 0.955 μM, MG 0.907 μM, PBS pH 7.2, 25° C., excitation 620 nm; FIG. 11
Procedure: The fluorescence spectrum of MG when MG is bound to the anti-MG-Ins Fab by an antigen-antibody reaction was measured as follows. The anti-MG-Ins Fab and MG were mixed so that the respective concentrations will be 0.955 μM and 0.907 μM (using phosphate buffered saline (pH 7.2, PBS) as the solvent). Then, an antigen-antibody reaction was made to proceed by stirring for five minutes at 25° C. Then using the fluorescence spectrophotometer, the fluorescence spectrum emitted from the above-described mixed solution was measured under the conditions of an excitation wavelength of 620 nm, fluorescence wavelength of 630 to 750 nm, and bandpass width being set to 5 nm at both the excitation and fluorescence sides.
Fluorescence spectra were also measured in the same manner as the above for various MG concentrations in the range of 0 to 0.9 μM with the anti-MG-Ins Fab concentration being set at 1 μM.

In the case of CN(C)c1ccc(C(=N)c2ccc(N(C)C)cc2)cc1 [auramine O], the “fluorescence upon binding with the anti-MG-Ins IgG” value [1] is reported as “became fluorescent”.
In the case of insulin, the “change of malachite green fluorescence intensity with increase of insulin concentration” value [2] is reported as “enhancement of fluorescence occurs”, the “relative value of the AO fluorescence intensity” value (“relative value” for short) ([3]; insulin added again to 2.39 μM) is reported as “decreased again” and the “relative value” value ([3]; insulin added again to 3.37 μM) is reported as “decreased”. The “relative value” value ([3]; insulin added to 1.26 μM, 2 μM anti-MG-Ins Fab, 0.4 μM AO, start value 1) was “approximately 0.97” and the “change of auramine O fluorescence intensity with increase of insulin concentration” value [4] was “inhibition of fluorescence occurs”.
CN(C)c1ccc(C(=C2C=CC(=[N+](C)C)C=C2)c2ccccc2)cc1 [malachite green] was tested, and the “fluorescence upon binding with the anti-MG-Ins Fab” value [5] was “became fluorescent”.
